Data from PubChem BioAssay (NCI).
Where “and” joins values, the source holds several entries; their conditions need not be identical. Identical values can stand only once.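 These data come from cells grown in 96-well plates and exposed to compound for 48 hours at five concentrations. Abbreviation: GI50, concentration required for 50% inhibition of growth. TGI is the concentration that stops growth completely.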

Experiments:
Assay in all cases: NCI anticancer screen, dose series, 48 h
[1] = tested on: KM12 colon
[2] = tested on: HCT-15 colon
[3] = tested on: SF-295 CNS
[4] = tested on: BT-549 breast
[5] = tested on: HS 578T breast
[6] = tested on: MOLT-4 leukemia
[7] = tested on: LOX IMVI melanoma
[8] = tested on: SNB-19 CNS
[9] = tested on: U251 CNS
[10] = tested on: SR leukemia

SMILES	GI50 [1] [µM]	TGI [1]	GI50 [2] [µM]	TGI [2]	TGI [3]	GI50 [4] [µM]	GI50 [5] [µM]	TGI [5]	GI50 [6] [µM]	TGI [6]	GI50 [7] [µM]	TGI [7]	TGI [8]	GI50 [9] [µM]	TGI [9]	TGI [10] [µM]	TGI [4]	GI50 [8] [µM]	GI50 [3] [µM]
c1ccc(C(=NNc2nc3ccccc3o2)c2ccccn2)nc1	0.0681	17.8 µM and 15 µM	0.0376	> 75.4 µM and 17.9 µM	12.6 µM and 3.7 µM	0.153	1.01	> 81.9 µM and 55.5 µM	0.0316	> 56.5 µM	0.0539	2.45 µM and 0.702 µM	> 46 µM and 33.7 µM	0.0649	20.1 µM and 16.1 µM				
Cc1cc(O)c(C(=O)CC2(O)C(=O)Nc3c(Cl)cc(Cl)cc32)c(=O)o1 (centres undefined)		> 100 µM		> 100 µM	> 100 µM					> 100 µM			> 100 µM		> 100 µM	> 100			
COc1ccc2nc(-c3ccccc3)cc(Nc3ccc(C(C)=O)cc3)c2c1	1.88	5.2 µM	2.25	6.11 µM	1.57 µM	15.3	8.2	27.1 µM	1.98	4.93 µM			26.6 µM	2.46	10.8 µM		37.5 µM	5.74	
Clc1ccc(-n2nnc(C3=NCCCN3)c2-c2ccccc2)cc1		> 100 µM		> 100 µM	> 100 µM					> 100 µM		> 100 µM	> 100 µM		> 100 µM	> 100			
CC(=O)C1CC2(c3ccc(C)cc3)C(c3ccc(C)cc3)=C(c3ccc(C)cc3)C1(c1ccc(C)cc1)S2=O (centres undefined)	> 100	> 100 µM	> 100	> 100 µM	> 100 µM	> 100	> 100	> 100 µM	> 100	> 100 µM	> 100	> 100 µM	> 100 µM	> 100	> 100 µM		> 100 µM	> 100	85
CC(=O)NC1=C(Nc2ccc(C)cc2)C(=O)c2ccccc2C1=O		> 75 µM		39.3 µM	54.7 µM					56.5 µM		21.3 µM	> 75 µM		> 75 µM				
CC([C@H]1CCC2C3CCC4C[C@@H](NC=O)CC[C@]4(C)C3CC[C@@]21C)N(C)C (some centres undefined)	3.14	12.6 µM	1.56	4.66 µM	5.58 µM	6.95	2.69	12 µM	1.84	8.71 µM	1.53	3.37 µM	19.5 µM	2.96	13.8 µM		25.1 µM	7.08	2.14
O=C1CCCCCCCC/C=C/CCC(c2ccco2)O1 (centres undefined)	20.7	> 100 µM	> 100	> 100 µM	> 100 µM	37.1	16.2	77.9 µM	24.1	89.6 µM	35.3	87.3 µM	60.7 µM	31.4	> 100 µM		> 100 µM	24	18.6
N#CCc1ccc(C(C#N)/C(CCCC(=O)Nc2cccc([N+](=O)[O-])c2)=N\NC(=O)NN)cc1 (centres undefined)		> 100 µM		> 100 µM	> 100 µM					> 100 µM			> 100 µM		> 100 µM	> 100			
CC(=O)OCC1OC(OC2CC3C(C)(C)C(OC(C)=O)CC[C@]3(C)C3CCC45CC4(CC[C@H]5C(C)CC(O)[C@@H](O)C(C)(C)O)[C@]23C)C(O)C(O)C1O (some centres undefined)	4.36	14.2 µM and 14.1 µM	12	14 µM and 24.3 µM	14.2 µM and 14.3 µM				0.0045	45 µM and 10.5 µM	3.34	13 µM and 11.2 µM	13.2 µM and 14.8 µM	4.3	12.3 µM and 15.6 µM			4.35	4.41
CCOC(=O)Cc1csc(/N=C2\NC(=O)/C(=C3\C(=O)N(C)c4ccccc43)S2)n1	23.3	83.8 µM	39.7	> 100 µM	87 µM	48.4	66.7	> 100 µM	40.3	> 100 µM	34.6	> 100 µM	> 100 µM	33.6	> 100 µM		> 100 µM	52.5	29.8
O=C(Nc1ccc(-n2cc(-c3ccncc3)c(-c3ccc(Cl)c(O)c3)n2)cc1)Nc1cc(C(F)(F)F)cc(C(F)(F)F)c1	1.6	3.15 µM	1.9	4.3 µM	3.08 µM	1.49	2.04	6.59 µM	1.95	7.37 µM	1.63	3.02 µM	9.97 µM	1.51	2.98 µM		3.22 µM	3.01	1.47
O=C(CNC(=O)OCc1ccccc1)Oc1ccccc1		> 100 µM		> 100 µM	> 100 µM					> 100 µM		> 100 µM	> 42.7 µM		> 100 µM	> 100			
C1CNCCNCCNCCN1		> 100 µM			> 100 µM					> 100 µM		> 100 µM	> 100 µM		81.5 µM	> 100			
NCCCN(CCCN)CCCNCc1c2ccccc2c(CNCCCN(CCCN)CCCN)c2ccccc12		14 µM		28.6 µM	27.8 µM					69.8 µM		42 µM	30.6 µM		33 µM	> 100			
C/C=C(\C)C(=O)N[C@H]1[C@@H](OC(C)=O)C[C@]2(C)C3CC[C@@]4(C)C(CC[C@@H]4C(C)N(C)C)C3CCC2[C@H]1O (some centres undefined)	4.35	15.5 µM	1.46	4.22 µM	14.9 µM	4.81	12.4	43.1 µM	6.19	33.8 µM	1.78	4.02 µM	28.9 µM	4.48	18.3 µM		21.6 µM	13.6	3.44
CCCCCCCCCCC(C)CCCCCCC(=O)OCC(COP(=O)([O-])OCC[N+](C)(C)C)OC(=O)CCCCCCC(C)CCCCCCCCCC (centres undefined)		> 100 µM		> 100 µM	> 100 µM					> 100 µM		> 100 µM	> 100 µM		> 100 µM	> 100			
COc1ccc(C(=O)C(c2ccc(OC)cc2)C2(O)C(=O)Nc3c(C)cc(Cl)cc32)cc1 (centres undefined)		> 100 µM		> 100 µM	> 100 µM					54.5 µM			> 100 µM		> 100 µM	48.2			
Cc1cccc(C)c1NC(=O)CCCC(=O)CC(=O)/C=C/c1ccccc1		> 100 µM		> 100 µM						> 100 µM		> 100 µM	> 100 µM		> 100 µM				
CN(C)CC(/C(Cc1ccccc1)=N\NC(=O)c1ccncc1)c1ccccc1 (centres undefined)					68.3 µM							> 100 µM	> 100 µM						

SMILES	GI50 [1] [µM]	TGI [1]	GI50 [2] [µM]	TGI [2]	TGI [3]	GI50 [4] [µM]	GI50 [5] [µM]	TGI [5]	GI50 [6] [µM]	TGI [6]	GI50 [7] [µM]	TGI [7]	TGI [8]	GI50 [9] [µM]	TGI [9]	TGI [10] [µM]	TGI [4]	GI50 [8] [µM]	GI50 [3] [µM]
CC1Cc2c(N)nc(NN)nc2NC1=O (centres undefined)		> 100 µM		> 100 µM	> 100 µM					> 100 µM		> 100 µM	> 100 µM		> 100 µM				
S=c1[nH]c(=S)c2sc(=S)n(-c3ccccc3)c2[nH]1		> 100 µM		> 100 µM	> 100 µM					> 100 µM		> 100 µM	> 100 µM		> 100 µM	> 100			
CCOC(=O)/C(=C\c1ccc(OCc2ccccc2)c(OC)c1)C(=O)c1ccccc1		41.2 µM		42.3 µM	46.8 µM					43.6 µM		30 µM	66.4 µM		31.1 µM	> 100			
COC(=O)/C=C(C)/C=C/c1cc(C(C)=O)c(C)o1		> 100 µM		> 100 µM	> 100 µM					> 100 µM		> 100 µM	> 100 µM		> 100 µM	> 100			
O=C1/C(=C/c2ccc(O)c([N+](=O)[O-])c2)CCC/C1=C\c1ccc(O)c([N+](=O)[O-])c1	1.97	18.4 µM and 9.42 µM	9.77	36.5 µM and 37.2 µM	50 µM and > 100 µM	2.83		60.3 µM	17.4	50 µM and 47 µM		23.2 µM	28.7 µM and 35.2 µM	14	18.3 µM and 26.9 µM		36.6 µM and 9.46 µM	17.1	
COc1ccc2c([nH]c3cc(O)c(C)cc32)c1C=O		> 25 µM		> 25 µM						> 25 µM		> 25 µM	> 25 µM		> 25 µM	> 25			
O=C1CCCCCCCCCCC(=O)C2CCOCCOCCOCCC1Cc1cccc(n1)C2		> 100 µM		> 100 µM	> 100 µM					> 100 µM		> 100 µM	> 100 µM		> 100 µM				
N#Cc1ccccc1NC(=O)/C(=N\NC(=O)c1ccncc1)C(c1cnc2ccc([N+](=O)[O-])cc2n1)[N+](=O)[O-] (centres undefined)		> 100 µM		> 100 µM	> 100 µM			> 100 µM		> 100 µM		> 100 µM			> 100 µM		> 100 µM		
C=CC[C@H]1C[C@@]2(C)OC[C@H](C(C)C)N2C1=O		> 100 µM		> 100 µM	> 100 µM							> 100 µM	> 100 µM		> 100 µM	> 100			
N/N=C(\CC1OC(=O)c2ccccc21)c1ccco1 (centres undefined)		> 100 µM		> 100 µM	> 100 µM					> 100 µM		> 100 µM	> 100 µM						
COc1ccc(C2S/C(=C\c3cc(OC)c(OC)c(OC)c3)C(=O)N2NC(=O)Cc2ccccc2)cc1 (centres undefined)		> 100 µM		> 100 µM	> 100 µM					> 100 µM		> 100 µM			> 100 µM	> 100			
Fc1ccc(Oc2nccc(-c3c(-c4ccc(F)cc4)ncn3C3CCNCC3)n2)cc1	> 25	> 25 µM	> 25	> 25 µM	> 25 µM	> 25	> 24	> 25 µM	> 25	> 25 µM	> 25	> 25 µM	> 25 µM	> 25	> 25 µM		> 25 µM	> 25	> 25
CCOc1cc2c(cnc3c4cc(OC)c(OC)cc4ccc23)cc1OC		> 100 µM		> 100 µM	> 100 µM					> 100 µM			> 100 µM		> 100 µM				
CCCCCCCCCNCCCCCCCCC	1.83	3.29 µM	1.79	3.47 µM	3.29 µM	1.93	1.83	4.16 µM			1.61	3.02 µM	9.83 µM	1.71	3.15 µM		3.38 µM	2.78	1.74
CCOC(=O)CCCn1c(SC)nc2cc(-c3ccco3)[nH]c2c1=O	> 100	> 100 µM	> 100	> 100 µM	54.8 µM		25.6	> 100 µM	> 100	> 100 µM	57.8	> 100 µM	65.6 µM	17.1	56 µM			19.8	16.7
Cn1ccc2c(NCCN)c3c(c(NCCN)c21)C(=O)c1ccccc1C3=O	0.551	5.71 µM	2.8	> 32 µM	5.77 µM	7.62	1.84	5.26 µM	< 0.0429		0.651	2 µM	47.2 µM	1.03	9.88 µM		23.7 µM	20.5	0.968
O=[N+]([O-])c1ccc(Sc2c3ccccc3nc3ccccc23)cc1		> 100 µM		> 100 µM	> 100 µM					> 100 µM		> 100 µM	> 100 µM		> 100 µM				
C=C1C(=O)O[C@@H]2C1C[C@@H](O)/C(C)=C/C/C=C(\C)CCC[C@H](C)[C@H]2OC(C)=O (some centres undefined)	20.8	41.7 µM	22.2	51.9 µM	> 100 µM	20	29.1	76 µM			21.9	47.2 µM	> 100 µM	23.8	52.4 µM		39.1 µM	61	> 100
CC(C)=CC(=O)Oc1ccc([N+](=O)[O-])cc1		> 100 µM		> 100 µM	> 100 µM					> 100 µM			> 100 µM		> 100 µM	> 100			
